In patent US10323056B2, “Crystalline hydrates of 1-(β-D-glucopyranosyl)-4-methyl-3-[5-(4-fluorophenyl)-2-thienylmethyl]benzene” (Lek Pharmaceuticals d.d., priority 2013, dated 2019):
Values belong to the compound of their own block, whether it stands above or below them.

Experiments:
Assay type in all cases: physicochemical
[1] = Competitive slurry in water (XRPD); settings: 50 mg each in 4 mL water, cycled 7 to 10° C. for 4 days, then 10 to 30° C. for 9 days
Procedure: A suspension of 50 mg 1-(β-D-glucopyranosyl)-4-methyl-3-[5-(4-fluorophenyl)-2-thienylmethyl]benzene form HxA (for example prepared according to the procedure described in example 1 of the present invention) and 50 mg 1-(β-D-glucopyranosyl)-4-methyl-3-[5-(4-fluorophenyl)-2-thienylmethyl]benzene hemihydrate (for example prepared according to the procedure described in example 1 of WO 2008/069327 A1) in 4 mL water was stirred at moderate velocity using a magnetic stirrer. The temperature during the slurry experiment was first cycled between 7 to 10° C. for 4 days changing the temperature every 2 hours. Thereafter the suspension was cycled in the range of 10 to 30° C. for 9 days changing the temperature every 2 hours.

[2] = Equilibrium aqueous solubility (HPLC); settings: for Rel. Solubilities: equilibrium aqueous solubility at 25 ± 1° C., relative to forms HxA/HxB = 100
Procedure: The aqueous solubilities of 1-(β-D-glucopyranosyl)-4-methyl-3-[5-(4-fluorophenyl)-2-thienylmethyl]benzene forms HxA and HxB of the present invention and the hemihydrate of 1-(β-D-glucopyranosyl)-4-methyl-3-[5-(4-fluorophenyl)-2-thienylmethyl]benzene described in WO 2008/069327 A1 were determined by the equilibrium solubility method. Saturated solutions of 1-(β-D-glucopyranosyl)-4-methyl-3-[5-(4-fluorophenyl)-2-thienylmethyl]benzene, obtained by stirring 50 mg of each crystalline form in 50 mL water were prepared and stirred at 25±1° C. After 60 minutes of stirring, three samples were withdrawn, filtered through 0.45 μm syringe filters and the filtrates were directly analyzed by HPLC. • Column: C18 4.6×150 mm 5 μm • Eluent A: 0.1% formic acid-water solution • Eluent B: 0.1% formic acid-acetonitril solution • Injection vol.: 100 μL • Column Temp.: 25° C. • Wavelength: 220 nm • Pump flow: 1.2 mL/min • Gradient: […]
Using six concentration points of known 1-(β-D-glucopyranosyl)-4-methyl-3-[5-(4-fluorophenyl)-2-thienylmethyl]benzene concentrations a calibration line was fitted by linear regression.

[3] = Water content by gravimetric moisture sorption/desorption and TGA
Procedure: The water values at varying relative humidities were obtained by recording moisture sorption isotherms with a SPS-11 moisture sorption analyzer (MD Messtechnik, Ulm, D). […] The equilibrium condition for each step was set to a mass constancy of ±0.005% over 60 min. The temperature was 25±0.1° C.
Thermogravimetric analysis (TGA) was performed using the following equipment/conditions: Thermogravimetric-system TGA-7, Pyris-Software für Windows NT, (Perkin-Elmer, Norwalk, Conn., USA), Platinum-sample holder (50 μl), Nitrogen as the purge gas (Sample purge: 20 mL/min, balance purge: 40 mL/min). Heating rate: 10 K/min; Heating Range: 25-100° C.;

- solid form stability in competitive slurry with hemihydrate [1]: does not transform
- Rel. Solubilities [2]: 100%
- increased aqueous solubility compared to the crystalline hemihydrate of WO 2008/069327 A1 ([2]; water, 25.0±1.0° C.): 10%
- water content ([3]; at a RH of about 0%): about 0.1%
- water content ([3]; at a RH of about 30%): about 3.5%
SMILES: Cc1ccc([C@@H]2O[C@H](CO)[C@@H](O)[C@H](O)[C@H]2O)cc1Cc1ccc(-c2ccc(F)cc2)s1 [form HxA, 1-(β-D-glucopyranosyl)-4-methyl-3-[5-(4-fluorophenyl)-2-thienylmethyl]benzene]

- water content ([3]; at a RH of about 40%): about 6.4%
- water content ([3]; at a RH of about 95%): about 8.0%
SMILES: Cc1ccc([C@@H]2O[C@H](CO)[C@@H](O)[C@H](O)[C@H]2O)cc1Cc1ccc(-c2ccc(F)cc2)s1 [form HxB, 1-(β-D-glucopyranosyl)-4-methyl-3-[5-(4-fluorophenyl)-2-thienylmethyl]benzene]

- Rel. Solubilities ([2]; listed as hemihydrate of WO 2008/069327 A1 (=Hy0.5), hemihydrate): 90%
SMILES: Cc1ccc([C@@H]2O[C@H](CO)[C@@H](O)[C@H](O)[C@H]2O)cc1Cc1ccc(-c2ccc(F)cc2)s1 [form Hy0.5, 1-(β-D-glucopyranosyl)-4-methyl-3-[5-(4-fluorophenyl)-2-thienylmethyl]benzene hemihydrate, reference compound]
